# Source: the supplement of paper PMC7017272
# ± gives the standard deviation of the averaged measurements.
# How the values were obtained:
# Conditions in all cases: treatment time: 3 days
# [1] = tested on: UT-SCC-24A; assay: maximal % inhibition of viability relative to DMSO; higher = stronger effect
# Protocol: (§1)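 HNSCC cell lines (500 cells/well, 384-well) were cultured on plastic, on top of (2D) or embedded (3D) in Matrigel or human leiomyoma matrix Myogel (500 ug/mL; Myogel 3D mixed with rat collagen I). Cells were treated for 3 days with 5 ten-fold concentrations of each drug, and viability was read by CellTiter-Glo. Viability was normalised to DMSO (0% inhibition) and 100 uM benzethonium chloride (100% inhibition) controls and fitted with the FIMM DSRT pipeline to give IC50 (nM), maximal % inhibition and the drug sensitivity score (DSS). Suffixes _1/_2/_3 on drug names are replicates.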
# [2] = tested on: UT-SCC-24A; assay: drug sensitivity score (DSS); higher = more sensitive
# Protocol: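 HNSCC cell lines (500 cells/well, 384-well) were cultured on plastic, on top of (2D) or embedded (3D) in Matrigel or human leiomyoma matrix Myogel (500 ug/mL; Myogel 3D mixed with rat collagen I). Cells were treated for 3 days with 5 ten-fold concentrations of each drug, and viability was read by CellTiter-Glo. Suffixes _1/_2/_3 on drug names are replicates.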
# [3] = tested on: UT-SCC-8; assay: drug sensitivity score (DSS); higher = more sensitive; extreme values may be limits of the assay
# Summary of the method: (§2)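 Viability of HPV-negative HNSCC cell lines was measured by CellTiter-Glo 2.0 luminescence. Cells were seeded at 500 cells/well in 384-well plates on plastic, on Matrigel- or Myogel-coated wells (500 µg/mL), or embedded in Matrigel or Myogel plus rat collagen I, then given compounds at five 10-fold concentrations for 3 days, with signals normalised to vehicle (0.1% DMSO) and cell-killing control wells. Fitting of percent-inhibition dose–response curves in the FIMM pipeline yielded IC50, maximal inhibition and drug sensitivity score.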
# [4] = tested on: UT-SCC-73; assay: as above
# Summary of the method: as §2
# [5] = tested on: UT-SCC-40; assay: as above
# Summary of the method: as §2
# [6] = tested on: UT-SCC-14; assay: as above
# Summary of the method: as §2
# [7] = tested on: UT-SCC-42B; assay: as above
# Summary of the method: as §2
# [8] = tested on: UT-SCC-24B; assay: as above
# Summary of the method: as §2
# [9] = tested on: UT-SCC-28; assay: as above
# Summary of the method: as §2
# [10] = tested on: UT-SCC-42A; assay: as above
# Summary of the method: as §2
# [11] = tested on: UT-SCC-106A; assay: as above
# Summary of the method: as §2
# [12] = tested on: UT-SCC-44; assay: as above
# Summary of the method: as §2
# [13] = tested on: UT-SCC-81; assay: as above
# Summary of the method: as §2
# [14] = tested on: UT-SCC-14; assay: maximal % inhibition of viability relative to DMSO; higher = stronger effect
# Protocol: as §1, with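 “DMSO” for “DMSO (0% inhibition)”, “and” for “and 100 uM”, “chloride” for “chloride (100% inhibition)”, “DSS.” for “the drug sensitivity score (DSS).”, “_1/_2/_3” for “_1/_2/_3 on drug names”, “replicates. Only inhibition-mode (IC50) fits are kept.” for “replicates.”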
# [15] = tested on: UT-SCC-42B; assay: as above
# Protocol: as §1, with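 “DMSO” for “DMSO (0% inhibition)”, “and” for “and 100 uM”, “chloride” for “chloride (100% inhibition)”, “DSS.” for “the drug sensitivity score (DSS).”, “_1/_2/_3” for “_1/_2/_3 on drug names”, “replicates. Only inhibition-mode (IC50) fits are kept.” for “replicates.”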
# [16] = tested on: UT-SCC-81; assay: as above
# Protocol: as §1, with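 “DMSO” for “DMSO (0% inhibition)”, “and” for “and 100 uM”, “chloride” for “chloride (100% inhibition)”, “DSS.” for “the drug sensitivity score (DSS).”, “_1/_2/_3” for “_1/_2/_3 on drug names”, “replicates. Only inhibition-mode (IC50) fits are kept.” for “replicates.”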
# [17] = tested on: UT-SCC-24A; assay: relative IC50 (midpoint of the fitted curve; maximal inhibition may be below 50%); higher = less potent
# Protocol: as §1
# [18] = culture condition: embedded in Matrigel
# [19] = culture condition: embedded in Myogel + collagen I
# [20] = culture condition: on top of Matrigel
# [21] = culture condition: on top of Myogel
# [22] = culture condition: plastic 2D (no matrix)
structure (smiles),measurement,setting,value
CO[C@H]1C[C@@H]2CC[C@@H](C)[C@@](O)(O2)C(=O)C(=O)N2CCCC[C@H]2C(=O)O[C@H]([C@H](C)C[C@@H]2CC[C@@H](OC(=O)C(C)(CO)CO)[C@H](OC)C2)CC(=O)[C@H](C)/C=C(\C)[C@@H](O)[C@@H](OC)C(=O)[C@H](C)C[C@H](C)/C=C/C=C/C=C/1C [Temsirolimus],maximal % inhibition of viability,[1]; [18],46.8 ± 44%
same,maximal % inhibition of viability,[1]; [19],40.8 ± 6.7%
same,maximal % inhibition of viability,[1]; [20],33.3 ± 6.1%
same,maximal % inhibition of viability,[1]; [21],28.7 ± 1.9%
same,maximal % inhibition of viability,[1]; [22],33.8 ± 2.7%
same,drug sensitivity score,[2]; [18],10.2 ± 11 DSS
same,drug sensitivity score,[2]; [19],9.67 ± 2.8 DSS
same,drug sensitivity score,[2]; [20],4.9 ± 1.3 DSS
same,drug sensitivity score,[2]; [21],5.03 ± 1.2 DSS
same,drug sensitivity score,[2]; [22],6.07 ± 0.67 DSS
same,drug sensitivity score,[3]; [18],9.4 ± 0.36 DSS
same,drug sensitivity score,[3]; [19],4.53 ± 0.57 DSS
same,drug sensitivity score,[3]; [20],9.17 ± 1.2 DSS
same,drug sensitivity score,[3]; [21],11.4 ± 1.6 DSS
same,drug sensitivity score,[3]; [22],10.4 ± 1.1 DSS
same,drug sensitivity score,[4]; [18],9.13 ± 6.3 DSS
same,drug sensitivity score,[4]; [19],8.27 ± 5.5 DSS
same,drug sensitivity score,[4]; [20],7.23 ± 0.64 DSS
same,drug sensitivity score,[4]; [21],7.1 ± 2.2 DSS
same,drug sensitivity score,[4]; [22],4.53 ± 1.6 DSS
same,drug sensitivity score,[5]; [18],6.03 ± 2 DSS
same,drug sensitivity score,[5]; [19],6.8 ± 2.6 DSS
same,drug sensitivity score,[5]; [20],4.17 ± 1.6 DSS
same,drug sensitivity score,[5]; [21],4.53 ± 1.1 DSS
same,drug sensitivity score,[5]; [22],3.6 ± 1 DSS
same,drug sensitivity score,[6]; [18],15.4 ± 0.23 DSS
same,drug sensitivity score,[6]; [19],14 ± 1.9 DSS
same,drug sensitivity score,[6]; [20],13.3 ± 0.66 DSS
same,drug sensitivity score,[6]; [21],13.7 ± 1.3 DSS
same,drug sensitivity score,[6]; [22],13.1 ± 2.3 DSS
same,drug sensitivity score,[7]; [18],4 ± 6 DSS
same,drug sensitivity score,[7]; [20],0 DSS
same,drug sensitivity score,[7]; [21],0 DSS
same,drug sensitivity score,[7]; [22],0.933 ± 0.84 DSS
same,drug sensitivity score,[8]; [18],5.07 ± 3.1 DSS
same,drug sensitivity score,[8]; [19],11 ± 2.6 DSS
same,drug sensitivity score,[8]; [20],4.3 ± 1.7 DSS
same,drug sensitivity score,[8]; [21],6.37 ± 1.4 DSS
same,drug sensitivity score,[8]; [22],4.77 ± 1.2 DSS
same,drug sensitivity score,[9]; [18],4.9 ± 2.9 DSS
same,drug sensitivity score,[9]; [19],4.77 ± 3.2 DSS
same,drug sensitivity score,[9]; [20],8.37 ± 2.5 DSS
same,drug sensitivity score,[9]; [22],8.8 ± 1.3 DSS
same,drug sensitivity score,[10]; [18],4.67 ± 1.3 DSS
same,drug sensitivity score,[10]; [19],5.23 ± 3.3 DSS
same,drug sensitivity score,[10]; [20],5.87 ± 1.4 DSS
same,drug sensitivity score,[10]; [21],6.4 ± 0.35 DSS
same,drug sensitivity score,[10]; [22],4.5 ± 1.1 DSS
same,drug sensitivity score,[11]; [18],6.03 ± 1.3 DSS
same,drug sensitivity score,[11]; [19],5.33 ± 1.3 DSS
same,drug sensitivity score,[11]; [20],5.93 ± 1 DSS
same,drug sensitivity score,[11]; [21],3.33 ± 0.21 DSS
same,drug sensitivity score,[11]; [22],7.6 ± 0.85 DSS
same,drug sensitivity score,[12]; [18],5.33 ± 4 DSS
same,drug sensitivity score,[12]; [19],9.3 ± 3.5 DSS
same,drug sensitivity score,[12]; [20],9.13 ± 1 DSS
same,drug sensitivity score,[12]; [21],8.97 ± 1.4 DSS
same,drug sensitivity score,[12]; [22],7.9 ± 0.78 DSS
same,drug sensitivity score,[13]; [18],14.9 ± 3.1 DSS
same,drug sensitivity score,[13]; [19],15 ± 3.8 DSS
same,drug sensitivity score,[13]; [20],10.2 ± 0.74 DSS
same,drug sensitivity score,[13]; [21],14.7 ± 1.5 DSS
same,drug sensitivity score,[13]; [22],12.1 ± 2.3 DSS
same,maximal % inhibition of viability,[14]; [18],53.5 ± 4.4%
same,maximal % inhibition of viability,[14]; [19],52.5 ± 4.8%
same,maximal % inhibition of viability,[14]; [20],50.5 ± 2.5%
same,maximal % inhibition of viability,[14]; [21],45.4 ± 4.4%
same,maximal % inhibition of viability,[14]; [22],46.3 ± 8.9%
same,maximal % inhibition of viability,[15]; [18],25.8 ± 20%
same,maximal % inhibition of viability,[15]; [20],17.6 ± 6.1%
same,maximal % inhibition of viability,[15]; [21],9.87 ± 4.1%
same,maximal % inhibition of viability,[15]; [22],15.3 ± 3.6%
same,maximal % inhibition of viability,[16]; [18],63.3 ± 16%
same,maximal % inhibition of viability,[16]; [19],56.5 ± 6%
same,maximal % inhibition of viability,[16]; [20],44.6 ± 5.2%
same,maximal % inhibition of viability,[16]; [21],54.3 ± 0.82%
same,maximal % inhibition of viability,[16]; [22],49.7 ± 7.5%
same,relative IC50,[17]; [20],2.16 nM
same,relative IC50,[17]; [21],2.23 nM
same,relative IC50,[17]; [22],1.66 nM
